Entries after “also recorded” stand apart in the source; their conditions may differ.

For one experiment, the system named is 13 unique dsDNA targets. As to the kind of experiment: All-by-all yeast surface display screen of DBP design hits. The class given is binding. The following applies: for Target sequence preference: 13 unique dsDNA targets; for Number of the 13 tested DNA target sequences preferentially bound: 1 μM dsDNA with avidity, including designed target sequence; for Binding specificity versus design models: all-by-all screen with Rosetta-predicted motifs. As for the experimental part:
And an all-by-all screen of DBP design hits to 13 unique dsDNA targets was performed (FIG. 4, table 2). […] To try to understand these observed binding preferences, each tested DNA sequence was threaded onto each design complex model at all possible base pair alignments, the alternative complex models were relaxed with Rosetta™, and the model with the most favorable Rosetta™ ΔΔG was selected.
Saccharomyces cerevisiae EBY100 strain cultures were grown in C-Trp-Ura medium supplemented with 2% (w/v) glucose. For induction of expression, yeast cells were centrifuged at 6,000 g for 1 min and resuspended in SGCAA medium supplemented with 0.2% (w/v) glucose at the cell density of 1×10^7 cells per ml and induced at 30° C. for 16-24 h. Cells were washed with PBSF (PBS with 1% (w/v) BSA) and labeled with biotinylated targets using two labeling methods: with-avidity and without-avidity labeling. For the with-avidity method, the cells were incubated with biotinylated target, together with anti-c-Myc fluorescein isothiocyanate (FITC, Miltenyi Biotech) and streptavidin-phycoerythrin (SAPE, ThermoFisher). The concentration of SAPE in the with-avidity method was used at one-quarter of the concentration of the biotinylated targets. For the without-avidity method, the cells were first incubated with biotinylated targets, washed and secondarily labeled with SAPE and FITC.
(§1) For yeast display characterization of individual designs, including competition assays, DNA sequences encoding the proteins of interest were purchased as Integrated DNA Technologies (IDT) E-Blocks™, transformed into yeast cells, and incubated in 96 well culture plates. Labeling with biotinylated dsDNA targets and SAPE/FITC was performed in a 96 well plate format. For yeast display competition assays, labeling was performed without avidity using 1 μM biotinylated dsDNA duplex oligos and an excess of 8 μM non-biotinylated competitor dsDNA duplex oligos. […] Flow cytometry analysis was performed with an Attune NxT™ flow cytometer with autosampler. Flow cytometry data analysis was performed using custom python code and the CytoFlow™ python package. For each individual sample, gating of the expression population was performed using the CytoFlow™ Gaussian Mixture Model and the ratio of SAPE channel intensity to FITC channel intensity (binding signal/expression signal) was calculated for all gated expression events of the sample.

For experiment [1], the system named is biotinylated target dsDNA with non-biotinylated competitor dsDNA. Briefly: Yeast display competition assay with base-substituted competitor dsDNA. In kind it is binding. The following applies: all possible base mutations at each position of the competitor oligo.
Excerpt: We used a yeast display competition assay to characterize the DNA binding site specificity of a subset of the designs (FIG. 1A-E, left; FIG. 5). Addition of non-biotinylated competitor dsDNA to biotinylated target sequence reduced binding signal by flow cytometry (FIG. 1A-E, middle). […] For example, in DBP6 (FIG. 1A) R31 and R36 in the design model form bidentate hydrogen bonds with the guanines of base pair positions G12 and C9, respectively, while T32 forms a hydrogen bond with C10.
as §1

The test system of another experiment is dsDNA target. As to the kind of experiment: Site saturation mutagenesis (SSM) library sorting, protein-side footprinting. As to conditions: for Tolerance of positions to substitution: interface, core and surface positions. The class given is binding. How it is done: As disclosed in the examples that follow, the contributions of each amino acid to binding for additional designs, high-resolution footprints of the binding surface as generated was assessed by sorting site saturation mutagenesis libraries (SSMs) in which every residue was substituted with each of the 20 amino acids one at a time for DBPs 1, 6, and 35. Permissible substitutions for many of the polypeptides of the disclosure are provided in columns 2 and 3 Tables 4-19.
Thus, in some embodiments, substitutions relative to the reference sequence are selected from residues listed in columns 2 or 3 of one of Tables 4-19. In other embodiments, substitutions relative to the reference sequence are selected from residues listed in column 2 of one of Tables 4-19. Column 2 lists the “best” substitutions, which retain or improve DNA target binding activity relative to the reference sequence. Column 3 lists “permissible” substitutions, which retain binding to the DNA target sequence.
To assess the contributions of each amino acid to binding for additional designs, high-resolution footprints of the binding surface as generated by sorting site saturation mutagenesis libraries (SSMs) in which every residue was substituted with each of the 20 amino acids one at a time for DBPs 1, 6, and 35. […] In a small number of cases, substitutions led to notable improvements in binding affinity.
Cell sorting of labeled yeast pools was performed using a Sony SH800S cell sorter. Libraries of designs were sorted using the with-avidity method for the first few rounds of screening to exclude weak binder candidates, followed by several without-avidity sorts with different concentrations of targets. For SSM libraries, two rounds of with-avidity sorts were applied and in the third round of screening the libraries were titrated with a series of decreasing concentrations of targets to enrich mutants with beneficial mutations.
The Pear program was used to assemble the fastq files from the deep sequencing runs. Translated, assembled reads were matched against the ordered design to determine the number of counts for each design in each pool. In each sequenced pool, binder enrichment was calculated by determining the percent of reads for each binder design in the pool and dividing this number by the same value in the naive expression sort pool. […] For SSM libraries, apparent SC50 was estimated using the fitting procedure described in Longxing et al. (15)

Experiment [2] deals with synTF-specific cis-regulatory elements (CRE) in HEK293T cells. As to the kind of experiment: Transcriptional activation by synTFs in HEK293T cells (ENGRAM). The class given is cell-based. As to conditions: DBP fused to GCN4 dimerization domain and VP64; HEK293T cells expressing PEmax; dependent on spacing between motifs. The text has this:
Next, we investigated whether the DBPs can be used as activators in mammalian cells. A set of synthetic transcription factors (synTFs) were created by fusing the GCN4 dimerization domain and the VP64 activation domain to the C-termini of DBPs 9, 35opt, 48, 57, and 60 which recognize 3 unique motifs. The dimerization domain allows the DBPs to recognize a palindromic target sequence consisting of two binding motifs, improving the binding affinity to the DNA sequence (FIG. 2C). We created synTF specific cis-regulatory elements (CRE) with 4 repeats spaced by 6 bp to drive the expression of downstream genes, and used the ENGRAM (43) recording technology to measure the activity of the synTFs in HEK293 cells. In ENGRAM, each CRE drives the expression of a uniquely barcoded pegRNA, which upon expression is recorded into the DNA TAPE at the HEK3 locus by prime-editor (PEmax); the activity of individual synTFs can be measured as the abundance of the barcode on the DNA TAPE (FIG. 2C). We first tested 3 different spacings-1 bp, 3 bp, and 5 bp-between the palindromic binding motifs to maximize the recorder activity. 3 synTF specific recorders and 1 TCF-LEF-recorder (negative control) were mixed with ratio 2:2:2:1 and co-transfected with synTFs into the HEK293T cells expressing PEmax. Cells were harvested and analyzed 2 days post-transfection. After analyzing the barcode abundance on the DNA TAPE, we observed 3-5 fold activation for DBP9/DBP35 and DBP57/DBP60 (FIG. 2D).
HEK293T cells expressing PEmax™ were cultured in DMEM High glucose (GIBCO), supplemented with 10% Fetal Bovine Serum (Rocky Mountain Biologicals) and 1% penicillin-streptomycin (GIBCO). Cells were grown with 5% CO2 at 37° C. 1×10^5 cells were seeded on a 48-well plate a day before transfection. Enhancer plasmid and binder plasmid were mixed with a ratio of 2:1. Enhancer variants and background control were mixed with a ratio of 2:2:2:1. A total of 300 ng of plasmid were transfected using Lipofectamine™ 3000 (ThermoFisher, L3000015), following the manufacturer's protocol. Cells were harvested 2 days post-transfection. Genomic DNA was extracted based on the protocol described earlier (43). Briefly, cells were lysed using freshly prepared lysis buffer (10 mM Tris-HCl, pH 7.5; 0.05% SDS; 25 µg/ml protease (ThermoFisher)) for each well. The genomic DNA mixture was incubated at 50° C. for 1 h, followed by an 80° C. enzyme inactivation step for 30 min. The DNA TAPE was amplified from the genomic DNA directly for next generation sequencing. Recorded information was extracted via custom analysis code. Each enhancer has a unique barcode representing its activity. Transcription activation was measured as the fold change in the barcode abundance relative to the negative control barcode. All measurements were performed in triplicates.

On to “DBP1: designed DNA-binding protein, SEQ ID NO: 1, DNA target A (TARELEVAALIAQGRSNREIAEELNISERTVERYVRRILRKLGLRNRAQIAAWVIRRS)”, for which the Target sequence preference result with 13 unique dsDNA targets is listed as “strong preference for 2 or 3 of the sequence targets”. In addition, the “DNA binding site specificity” value in experiment [1] was “specificities consistent with the designed sidechain-base interactions”. Further, in the experiment on dsDNA target, the “Tolerance of positions to substitution” value is “most positions at the interface and the core were largely conserved while positions at the surface were more tolerant of substitutions”.

For the molecule “DBP6: designed DNA-binding protein, SEQ ID NO: 4, DNA target B (DWAARAAAARRLRKERGLTQAELGELAGVSRTTVSRIELGRPDVSQASVDAVLAVL)”, in the experiment on 13 unique dsDNA targets, the “Number of the 13 tested DNA target sequences preferentially bound” value was “less than 3”, the Target sequence preference entry is “strong preference for only their designed target sequence” and the “Binding specificity versus design models” value is recorded as “bound with specificity closely consistent with the design models”. For the same molecule, the “DNA binding site specificity” value in experiment [1] was “specificity for a 6 nucleotide stretch (TGCACA) with peripheral dependence on T8 and A13; also recorded: specificities consistent with the designed sidechain-base interactions; also recorded: specificity for the GCxG motif”. Also, the Substitutions improving binding entry with dsDNA target (every residue substituted with each of the 20 amino acids) is “relatively few mutations at interface positions improved binding with the exceptions of L39, D43, and 548”. Also, the “Tolerance of positions to substitution” value in the experiment with dsDNA target is “most positions at the interface and the core were largely conserved while positions at the surface were more tolerant of substitutions”.

In the case of “DBP9: designed DNA-binding protein, SEQ ID NO: 6, DNA target B (DWERRCAYARRARKELGLTQAELGELAGVSRTTVSRIERGKPDVSEASVEAVLAVL)”, in the experiment with 13 unique dsDNA targets, the “Number of the 13 tested DNA target sequences preferentially bound” value was “less than 3”, the Target sequence preference entry is “strong preference for only their designed target sequence” and the “Binding specificity versus design models” value is recorded as “bound with specificity closely consistent with the design models”. Besides, the “DNA binding site specificity” value in experiment [1] is “specificity for a 6 nucleotide stretch (TGCACA) with peripheral dependence on T8 and A13”. Also, the “Fold activation of synTFs measured as normalized barcode abundance in the DNA TAPE” value in experiment [2] is 3-5 fold.

B1: DBP62: designed DNA-binding protein, SEQ ID NO: 36, DNA target F (protein)
chain: KEELEKLLKIIESLPKKFREVIILKFVEGLSYTEIAERLGVSRGAVYSRLRSALKKIEEALKK
Turning to B1, in the experiment with 13 unique dsDNA targets, the “Number of the 13 tested DNA target sequences preferentially bound” value is reported as “less than 3”, the Target sequence preference entry is “strong preference for only their designed target sequence” and the “Binding specificity versus design models” value is on record as “bound with specificity closely consistent with the design models”. Besides, in experiment [1], the “DNA binding site specificity” value is “dependent on bases peripheral to the binding site (e.g. C11); also recorded: exhibited specificity for its target site”.

B2: DBP60: designed DNA-binding protein, SEQ ID NO: 34, DNA target E (protein)
chain: DIEKIAKAVKELREELGLTQAEFAKKIGIGQGTLSRFEKGGVLSPKTMERLLKALEKEFGFDVKK
On to B2, for which, in the experiment on 13 unique dsDNA targets, the “Number of the 13 tested DNA target sequences preferentially bound” value is recorded as “less than 3”, the Target sequence preference result is listed as “strong preference for 2 or 3 of the sequence targets” and the “Binding specificity versus design models” value was “bound with specificity closely consistent with the design models”. In addition, the “Fold activation of synTFs measured as normalized barcode abundance in the DNA TAPE” value in experiment [2] is 3-5 fold.

B3: DBP56: designed DNA-binding protein, SEQ ID NO: 30, DNA target E (protein)
chain: PPPTPFEVAGARIKEERAKLGLTQAELAKVAGVGQATVSRIEKGRKCSWELIEKIFEALKKV
For the molecule B3, in the experiment on 13 unique dsDNA targets, the “Number of the 13 tested DNA target sequences preferentially bound” value is “less than 3” and the “Binding specificity versus design models” value was “bound with specificity closely consistent with the design models”. Besides, in experiment [1], the “DNA binding site specificity” value is “specificities consistent with the designed sidechain-base interactions”.

The values are drawn from US20250051407A1, “De novo designed sequence-specific DNA binding proteins” (University of Washington, priority 2023, published 2025).
